Results on twelve compounds are retold here after patent US6685617B1, “Inhibitors of α4β1 mediated cell adhesion” (Pharmacia & Upjohn Company, priority 1998, dated 2004).

In data set [1] the target is T1, α4β1 integrin (Jurkat T-cell adhesion to IL-1 stimulated endothelial cell monolayers) (Homo sapiens, UniProt P05556+P13612).
T1 construct: a T-cell line, Jurkat, known to express the α4β1 integrin; host or cells: Jurkat T-cell line
The data set can be described thus: Jurkat-endothelial cell adhesion assay (Jurkat EC). The settings on record: Jurkat cells on IL-1 stimulated human umbilical vein endothelial cells; read-out: JK/EC (Jurkat EC Assay IC50 value range). It is filed as cell-based. Put shortly:
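BCECF-AM-labelled Jurkat cells were mixed with compound, generally 100, 20, 5 and 1.25 μM, and added to HUVEC monolayers (passage ≤6) pre-stimulated 4 hr at 37° C with 0.1 ng/ml IL-1. After 5 min on ice and 20 min at 37° C, washed wells were read by fluorescence as % adhesion relative to no compound.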

Data set [2] concerns the target T2, α4β1 integrin (Jurkat cell adhesion to immobilized CS-1 derived peptide CLHPGEILDVPST) (Homo sapiens, UniProt P05556+P13612).
T2 construct: 100 μl of Jurkat cells (2.5×10^6 cells/ml) in DMEM plus BSA; host or cells: Jurkat T-cell line
The data set can be described thus: Jurkat-CS-1 assay. The format is cell-based. The following applies: Jurkat cells on CS-1 peptide coated plates; read-out: JK/CS-1 (Jurkat CS-1 Assay IC50 value range). Put shortly:
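CS-1 peptide was SPDP-crosslinked onto HSA-coated plates and blocked with BSA. Jurkat cells (2.5×10^6 cells/ml) in DMEM/BSA were mixed with compound, generally at 100, 20, 5 and 1.25 μM, and allowed to adhere for 1 hr at 37° C. Bound cells were fixed, stained with toluidine blue and quantified by OD590.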

Data set [3] has as its system VLA-4 integrin-dependent eosinophil infiltration. The data set can be described thus: Dextran pleurisy model (intrapleural dextran, pleural leukocyte infiltration). It is filed as in vivo, C57BL/6 mice. The following applies: dose 50 × 2 iv; mouse, 4 h after intrapleural dextran. The method, then:
Animals, Housing and Viral Testing:
C57BL/6 mice (Jackson, Bar Harbor, Me.), 6-8 weeks old, weighing 20-25 g were used throughout. All mice were acclimated for at least 7-14 days after arrival and maintained under controlled temperature (20-22° C.) and a 12 hr daily light cycle (6.00 A.M.-6.00 P.M.). Mice were housed in laminar flow racks and checked biweekly for viral infections (mouse hepatitis virus, minute virus of mice, rodent orphan parvovirus, Sendai) with kits obtained from Oreganon Teknika (Durham, N.C.) using established enzyme-linked immunoabsorbent assays. Mice testing positive for any of the above were omitted from the study. […]
Quantitation of Pleural Inflammatory Leukocyte Responses: […]
The pleural cavities of mice receiving either no intrapleural injection, or saline were washed and the cells counted in the same way to estimate baseline or saline-induced pleural leukocyte counts respectively. […]
The following compounds were tested for their inhibitory effects on dextran-induced leukocyte infiltration: Examples 3, 8, 9, 10, 12, 16, 37, 62, 66, 67, 99, 100, 111, 113, 115, 127, 131, 141, 184, 185, 192, PBS (saline) was administered iv. as a control. Inhibition of eosinophil infiltration, which was suppressed by anti-alpha-4 Mab (PS/2, 50%), was used as a readout of VLA-4 antagonist activity of the compounds tested. […]

T2 sequence (P13612 34-1032): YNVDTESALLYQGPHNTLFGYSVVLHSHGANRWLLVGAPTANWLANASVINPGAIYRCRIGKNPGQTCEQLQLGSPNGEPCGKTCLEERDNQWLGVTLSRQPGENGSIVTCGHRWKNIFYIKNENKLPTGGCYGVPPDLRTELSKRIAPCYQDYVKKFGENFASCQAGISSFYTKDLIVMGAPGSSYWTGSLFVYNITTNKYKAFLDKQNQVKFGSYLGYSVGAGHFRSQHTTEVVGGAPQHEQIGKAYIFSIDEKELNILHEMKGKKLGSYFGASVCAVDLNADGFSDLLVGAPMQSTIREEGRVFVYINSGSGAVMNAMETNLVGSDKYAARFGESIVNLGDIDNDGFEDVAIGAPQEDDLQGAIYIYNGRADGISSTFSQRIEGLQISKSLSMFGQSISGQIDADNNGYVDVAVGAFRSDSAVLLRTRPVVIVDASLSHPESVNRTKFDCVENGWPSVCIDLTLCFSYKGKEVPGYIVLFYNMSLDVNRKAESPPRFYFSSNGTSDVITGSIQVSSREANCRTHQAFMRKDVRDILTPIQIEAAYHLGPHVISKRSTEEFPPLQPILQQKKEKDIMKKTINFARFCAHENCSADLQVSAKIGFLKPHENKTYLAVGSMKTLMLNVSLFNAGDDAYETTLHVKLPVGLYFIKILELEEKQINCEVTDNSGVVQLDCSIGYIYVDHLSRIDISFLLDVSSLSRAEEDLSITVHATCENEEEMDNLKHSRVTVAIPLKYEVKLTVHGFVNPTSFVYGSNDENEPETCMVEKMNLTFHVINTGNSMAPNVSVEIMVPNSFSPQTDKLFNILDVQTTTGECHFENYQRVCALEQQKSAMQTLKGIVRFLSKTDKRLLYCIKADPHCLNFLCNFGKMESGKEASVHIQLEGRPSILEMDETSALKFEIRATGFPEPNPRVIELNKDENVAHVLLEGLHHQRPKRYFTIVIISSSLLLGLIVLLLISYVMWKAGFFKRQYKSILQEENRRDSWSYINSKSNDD
T2 sequence (P05556 21-798): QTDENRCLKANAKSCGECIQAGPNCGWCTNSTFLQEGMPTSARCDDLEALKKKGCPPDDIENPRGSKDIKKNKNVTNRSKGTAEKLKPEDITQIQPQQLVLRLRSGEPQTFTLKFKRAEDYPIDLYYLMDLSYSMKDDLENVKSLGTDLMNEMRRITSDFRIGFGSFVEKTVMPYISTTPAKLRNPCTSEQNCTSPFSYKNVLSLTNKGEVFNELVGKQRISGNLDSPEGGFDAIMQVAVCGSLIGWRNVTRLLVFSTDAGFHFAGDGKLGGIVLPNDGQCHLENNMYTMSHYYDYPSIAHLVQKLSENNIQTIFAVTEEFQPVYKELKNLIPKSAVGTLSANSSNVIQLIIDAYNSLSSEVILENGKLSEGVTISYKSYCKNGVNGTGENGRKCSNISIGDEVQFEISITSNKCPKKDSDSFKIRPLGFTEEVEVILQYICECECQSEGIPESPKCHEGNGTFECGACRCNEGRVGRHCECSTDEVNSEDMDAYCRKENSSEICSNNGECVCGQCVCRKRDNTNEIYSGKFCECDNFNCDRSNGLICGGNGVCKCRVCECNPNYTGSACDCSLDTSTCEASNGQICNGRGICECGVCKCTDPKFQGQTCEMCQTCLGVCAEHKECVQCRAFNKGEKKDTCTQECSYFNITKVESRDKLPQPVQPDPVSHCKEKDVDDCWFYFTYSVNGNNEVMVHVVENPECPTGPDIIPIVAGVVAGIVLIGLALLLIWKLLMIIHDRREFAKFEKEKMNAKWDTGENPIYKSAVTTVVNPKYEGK
T1 sequence (P13612 34-1032): as the sequence (P13612 34-1032) above
T1 sequence (P05556 21-798): as the sequence (P05556 21-798) above

Regarding `COC(=O)[C@H](Cc1ccc(OCc2c(Cl)cccc2Cl)cc1)NC(=O)[C@H]1CSCN1C(=O)OCc1ccccn1` (relative stereo) [Example 38, [S-(R*,R*)]-4-[[[1-[4-[(2,6-Dichlorophenyl)methoxy]phenyl]methyl]-2-methoxy-2-oxoethyl]amino]carbonyl]-3-thiazolidinecarboxylic Acid 3-[(2-Pyridinyl)methyl]ester], the melting point (commonly the temperature, or range, at which the solid turns liquid) was 123 to 125 °C. In addition, in data set [1], the IC50 was not below 1000 nM. Further, in data set [2], the IC50 was not below 750 nM.

On to `COC(=O)[C@H](Cc1ccc(OCc2c(Cl)cccc2Cl)cc1)NC(=O)[C@H]1CSCN1C(=O)OCCN1CCCC1` (relative stereo) [Example 39, [S-(R*,R*)]-4-[[[1-[4-[(2,6-Dichlorophenyl)methoxy]phenyl]methyl]-2-methoxy-2-oxoethyl]amino]carbonyl]-3-thiazolidinecarboxylic Acid 3-[2-(1-Pyrrolidinyl)ethyl]ester], for which the melting point fell in the range of 130 to 132 °C. In addition, the IC50 in data set [1] is not above 250 nM. In addition, the IC50 in data set [2] lay in the range of 50 to 750 nM.

With `CN(CCc1ccccn1)C(=O)N1CSC[C@@H]1C(=O)N[C@@H](Cc1ccc(OCc2c(Cl)cccc2Cl)cc1)C(=O)O` (relative stereo) [Example 153, [S-(R*,R*)]-4-[[[1-Carboxy-2-[4-[(2,6-dichlorophenyl)methoxy]phenyl]ethyl]amino]-carbonyl]-N-methyl-N-[2-(2-pyridinyl)ethyl]-3-thiazolidinecarboxamide], the melting point was determined as 80 °C. Also, the IC50 in data set [1] was not below 1000 nM. Besides, the IC50 in data set [2] is not below 750 nM.

As for `COC(=O)[C@H](Cc1ccc(OCc2c(Cl)cccc2Cl)cc1)NC(=O)[C@H]1CSCN1C(=O)OC1CCOC1` (relative stereo) [Example 156, [S-(R*,R*)]-4-[[[1-[[4-[(2,6-Dichlorophenyl)methoxy]phenyl]methyl]-2-methoxy-2-oxoethyl]amino]carbonyl]-3-thiazolidinecarboxylic Acid 3-(3-Tetrahydrofuranyl)ester], the melting point is 125 to 126.5 °C. The IC50 in data set [1] is not below 1000 nM. The IC50 in data set [2] was in the range of 50 to 750 nM.

In the case of `COC(=O)[C@H](Cc1ccc(NC(=O)c2c(Cl)cccc2Cl)cc1)NC(=O)[C@H]1CSCN1C(=O)N(C)CCc1ccccn1` [Example 54, 4-[(2,6-Dichlorobenzoyl)amino]-N-[[(4S)-3-[[methyl[2-(2-pyridinyl)ethyl]amino]carbonyl]-4-thiazoidinyl]carbonyl]-L-phenylalanine Methyl Ester], the melting point is 80 to 90 °C (dec.). The IC50 in data set [1] is not below 1000 nM. Besides, the IC50 in data set [2] was 50 to 750 nM.

In turn, `COC(=O)[C@H](Cc1ccc(NC(=O)c2c(Cl)cccc2Cl)cc1)NC(=O)[C@H]1CSCN1C(=O)N1CCOCC1` [Example 56, 4-[(2,6-Dichlorobenzoyl)amino]-N-[[(4S)-3-(4-morpholinylcarbonyl)-4-thiazolidinyl]carbonyl]-L-phenylalanine Methyl Ester] came in with a melting point of 223 to 225 °C. Further, the IC50 in data set [1] was not below 1000 nM. Besides, in data set [2], the IC50 lay within 50 to 750 nM.

Take `COC(=O)[C@H](Cc1ccc(NC(=O)c2c(Cl)cccc2Cl)cc1)NC(=O)[C@H]1CSCN1C(=O)N(CCO)CCO` [Example 57, N-[[(4S)-3-[[bis(2-Hydroxyethyl)amino]carbonyl]-4-thiazolidinyl]carbonyl]-4-[(2,6-dichlorobenzoyl)amino]-L-phenylalanine Methyl Ester]: the melting point fell in the range of 105 to 107 °C. Besides, in data set [1], the IC50 is not below 1000 nM. Also, the IC50 in data set [2] was not below 750 nM.

In turn, `CCOC(=O)N1[C@@H](C(=O)N[C@@H](Cc2ccc(NC(=O)c3c(Cl)cccc3Cl)cc2)C(=O)OC)C[C@@H]1C(=O)OC` [Example 140, [2R-(2α,4β(S*)]-4-[[[1-[[4-[(2,6-Dichlorobenzoyl)amino]phenyl]methyl]-2-methoxy-2-oxoethyl]amino]carbonyl]-1,2-azetidinedicarboxylic Acid 1-Ethyl-2-methyl Diester] yielded a melting point of 97 to 99 °C. Also, in data set [1], the IC50 is not below 1000 nM. The IC50 in data set [2] was not below 750 nM.

For the compound `COC(=O)[C@H](Cc1ccc(NC(=O)c2c(Cl)cccc2Cl)cc1)NC(=O)[C@@H]1CCN1C(=O)OC(C)(C)C` [Example 142, [2S-(R*,R*)]-2-[[[1-[4-[(2,6-Dichlorobenzoyl)amino]phenylmethyl]-2-methoxy-2-oxoethyl]amino]carbonyl]-1-azetidinecarboxylic Acid 1-(1,1-Dimethyl)ethyl Ester], the melting point was 106 to 108 °C. In addition, the IC50 in data set [1] is not below 1000 nM. The IC50 in data set [2] was not below 750 nM.

`COC(=O)[C@H](Cc1ccc(NC(=O)c2c(Cl)cccc2Cl)cc1)NC(=O)[C@@H]1CCN1` [Example 158, [2S-(R*,R*)]-2-[[[1-[[4-[(2,6-Dichlorobenzoyl)amino]phenyl]methyl]-2-methoxy-2-oxoethyl]amino]carbonyl]azetidine] had a melting point of 113 to 115 °C. Further, in data set [1], the IC50 is not below 1000 nM. Further, in data set [2], the IC50 was not below 750 nM.

Take `CS(=O)(=O)N1CSC[C@@H]1C(=O)N[C@@H](Cc1ccc(OCc2c(Cl)cccc2Cl)cc1)C(N)=O` [Example 159]: the melting point fell in the range of 228 to 230 °C. For the same compound, the IC50 in data set [1] was not below 1000 nM. The IC50 in data set [2] is not below 750 nM.

Consider “[2R-[1(S*),2α,4β(S*)]]-4-[[[1-Carboxy-2-[4-[(2,6-dichlorobenzoyl)amino]phenyl]ethyl]-amino]carbonyl]-1-(1-phenylethyl)-2-azetidincearboxylic Acid, Dilithium Salt [Example 131]”, for which the “% Inhibition of Eosinophil infiltration (Eos)” value in data set [3] is on record as “C (C<19)”. Besides, the IC50 in data set [1] is 250 to 1000 nM; in data set [2] it was 50 to 750 nM.
